In brackets after ≈: the same amount, converted by molar mass.
Tested on: Cryptococcus neoformans
Experiment: Antifungal activity against Cryptococcus neoformans after 72 hrs by serial dilution method
Assay type: functional
Conditions: not given
With `O=C1c2ccsc2-c2nccc3ccnc1c23` the MIC80 was 0.25 µg/mL (≈ 1.05 µM).
`OC(Cn1cncn1)(Cn1cncn1)c1ccc(F)cc1F` [FLUCONAZOLE] showed an MIC80 of 0.25 µg/mL (≈ 0.816 µM).
In the case of `Cn1cc2c(c1)-c1nccc3ccnc(c13)C2=O`, the MIC80 is reported as over 64 µg/mL.
Work on `Cn1ccc2c1C(=O)c1nccc3ccnc-2c13` yielded an MIC80 of 8 µg/mL (≈ 34 µM).
`O=C1c2ccccc2-c2nccc3ccnc1c23` [SAMPANGINE] showed an MIC80 of 2 µg/mL (≈ 8.61 µM).
In the case of `O=C1c2ccsc2-c2nccc3c(Br)cnc1c23`, the MIC80 is reported as 4 µg/mL (≈ 12.6 µM).
Compound `CC(=O)Nc1ccc(-c2cc3ccnc4c3c(n2)-c2sccc2C4=O)cc1` has an MIC80 of over 64 µg/mL.
With `Cc1ccccc1-c1cc2ccnc3c2c(n1)-c1sccc1C3=O` the MIC80 was over 64 µg/mL.
In the case of `O=C1c2cc(Br)sc2-c2nccc3ccnc1c23`, the MIC80 is reported as 4 µg/mL (≈ 12.6 µM).

Tested on: Candida albicans
Experiment: Antifungal activity against Candida albicans after 24 hrs by serial dilution method
Assay type: functional
Conditions: not given
`O=C1c2ccsc2-c2nccc3ccnc1c23` gave an MIC80 of 4 µg/mL (≈ 16.8 µM).
`OC(Cn1cncn1)(Cn1cncn1)c1ccc(F)cc1F` [FLUCONAZOLE] showed an MIC80 of 0.5 µg/mL (≈ 1.63 µM).
Compound `Cn1cc2c(c1)-c1nccc3ccnc(c13)C2=O` has an MIC80 of over 64 µg/mL.
`Cn1ccc2c1C(=O)c1nccc3ccnc-2c13` showed an MIC80 of 64 µg/mL (≈ 272 µM).
For `O=C1c2ccccc2-c2nccc3ccnc1c23` [SAMPANGINE], the MIC80 was 0.5 µg/mL (≈ 2.15 µM).
Compound `O=C1c2ccsc2-c2nccc3c(Br)cnc1c23` has an MIC80 of 4 µg/mL (≈ 12.6 µM).
For `CC(=O)Nc1ccc(-c2cc3ccnc4c3c(n2)-c2sccc2C4=O)cc1`, the MIC80 was 32 µg/mL (≈ 86.2 µM).
In the case of `Cc1ccccc1-c1cc2ccnc3c2c(n1)-c1sccc1C3=O`, the MIC80 is reported as 32 µg/mL (≈ 97.4 µM).
Compound `O=C1c2cc(Br)sc2-c2nccc3ccnc1c23` has an MIC80 of 8 µg/mL (≈ 25.2 µM).

Tested on: Nannizzia gypsea
Experiment: Antifungal activity against Microsporum gypseum by serial dilution method
Assay type: functional
Conditions: not given
With `O=C1c2ccsc2-c2nccc3ccnc1c23` the MIC80 was 2 µg/mL (≈ 8.39 µM).
With `OC(Cn1cncn1)(Cn1cncn1)c1ccc(F)cc1F` [FLUCONAZOLE] the MIC80 was 16 µg/mL (≈ 52.2 µM).
For `Cn1cc2c(c1)-c1nccc3ccnc(c13)C2=O`, the MIC80 was over 64 µg/mL.
`Cn1ccc2c1C(=O)c1nccc3ccnc-2c13` gave an MIC80 of over 64 µg/mL.
Compound `O=C1c2ccccc2-c2nccc3ccnc1c23` [SAMPANGINE] has an MIC80 of over 64 µg/mL.
Compound `O=C1c2ccsc2-c2nccc3c(Br)cnc1c23` has an MIC80 of 0.5 µg/mL (≈ 1.58 µM).
Work on `CC(=O)Nc1ccc(-c2cc3ccnc4c3c(n2)-c2sccc2C4=O)cc1` yielded an MIC80 of over 64 µg/mL.
`Cc1ccccc1-c1cc2ccnc3c2c(n1)-c1sccc1C3=O` gave an MIC80 of over 64 µg/mL.
Compound `O=C1c2cc(Br)sc2-c2nccc3ccnc1c23` has an MIC80 of 1 µg/mL (≈ 3.15 µM).

Tested on: Trichophyton rubrum
Experiment: Antifungal activity against Trichophyton rubrum by serial dilution method
Assay type: functional
Conditions: not given
With `O=C1c2ccsc2-c2nccc3ccnc1c23` the MIC80 was 2 µg/mL (≈ 8.39 µM).
Compound `OC(Cn1cncn1)(Cn1cncn1)c1ccc(F)cc1F` [FLUCONAZOLE] has an MIC80 of 0.5 µg/mL (≈ 1.63 µM).
Work on `Cn1cc2c(c1)-c1nccc3ccnc(c13)C2=O` yielded an MIC80 of over 64 µg/mL.
Work on `Cn1ccc2c1C(=O)c1nccc3ccnc-2c13` yielded an MIC80 of 16 µg/mL (≈ 68 µM).
In the case of `O=C1c2ccccc2-c2nccc3ccnc1c23` [SAMPANGINE], the MIC80 is reported as 16 µg/mL (≈ 68.9 µM).
`O=C1c2ccsc2-c2nccc3c(Br)cnc1c23` showed an MIC80 of 2 µg/mL (≈ 6.31 µM).
With `CC(=O)Nc1ccc(-c2cc3ccnc4c3c(n2)-c2sccc2C4=O)cc1` the MIC80 was over 64 µg/mL.
Work on `Cc1ccccc1-c1cc2ccnc3c2c(n1)-c1sccc1C3=O` yielded an MIC80 of 32 µg/mL (≈ 97.4 µM).
Work on `O=C1c2cc(Br)sc2-c2nccc3ccnc1c23` yielded an MIC80 of 2 µg/mL (≈ 6.31 µM).

Tested on: not listed separately
Experiment: Kinetic solubility of the compound in PBS buffer at pH 7.4
Assay type: physicochemical
Conditions: read-out: Kinetic_solubility
Compound `O=C1c2ccsc2-c2nccc3ccnc1c23` has a solubility kinetic of 48 µg/mL (≈ 201 µM).
`Cn1cc2c(c1)-c1nccc3ccnc(c13)C2=O` showed a solubility kinetic of 17 µg/mL (≈ 72.3 µM).
`Cn1ccc2c1C(=O)c1nccc3ccnc-2c13` gave a solubility kinetic of 22 µg/mL (≈ 93.5 µM).
`O=C1c2ccccc2-c2nccc3ccnc1c23` [SAMPANGINE] gave a solubility kinetic of 12.6 µg/mL (≈ 54.3 µM).

Tested on: Aspergillus fumigatus
Experiment: Antifungal activity against Aspergillus fumigatus after 7 days by serial dilution method
Assay type: functional
Conditions: 168 h
Compound `O=C1c2ccsc2-c2nccc3ccnc1c23` has an MIC80 of 1 µg/mL (≈ 4.2 µM).
With `OC(Cn1cncn1)(Cn1cncn1)c1ccc(F)cc1F` [FLUCONAZOLE] the MIC80 was over 64 µg/mL.
In the case of `Cn1cc2c(c1)-c1nccc3ccnc(c13)C2=O`, the MIC80 is reported as over 64 µg/mL.
In the case of `Cn1ccc2c1C(=O)c1nccc3ccnc-2c13`, the MIC80 is reported as 64 µg/mL (≈ 272 µM).
`O=C1c2ccccc2-c2nccc3ccnc1c23` [SAMPANGINE] gave an MIC80 of 16 µg/mL (≈ 68.9 µM).
With `O=C1c2ccsc2-c2nccc3c(Br)cnc1c23` the MIC80 was 8 µg/mL (≈ 25.2 µM).
With `CC(=O)Nc1ccc(-c2cc3ccnc4c3c(n2)-c2sccc2C4=O)cc1` the MIC80 was over 64 µg/mL.
`Cc1ccccc1-c1cc2ccnc3c2c(n1)-c1sccc1C3=O` gave an MIC80 of over 64 µg/mL.
For `O=C1c2cc(Br)sc2-c2nccc3ccnc1c23`, the MIC80 was 4 µg/mL (≈ 12.6 µM).

Tested on: Nakaseomyces glabratus
Experiment: Antifungal activity against Candida glabrata after 24 hrs by serial dilution method
Assay type: functional
Conditions: not given
Compound `O=C1c2ccsc2-c2nccc3ccnc1c23` has an MIC80 of 4 µg/mL (≈ 16.8 µM).
Compound `OC(Cn1cncn1)(Cn1cncn1)c1ccc(F)cc1F` [FLUCONAZOLE] has an MIC80 of 0.25 µg/mL (≈ 0.816 µM).
In the case of `Cn1cc2c(c1)-c1nccc3ccnc(c13)C2=O`, the MIC80 is reported as over 64 µg/mL.
Compound `Cn1ccc2c1C(=O)c1nccc3ccnc-2c13` has an MIC80 of 32 µg/mL (≈ 136 µM).
Work on `O=C1c2ccccc2-c2nccc3ccnc1c23` [SAMPANGINE] yielded an MIC80 of 0.125 µg/mL (≈ 0.538 µM).
`O=C1c2ccsc2-c2nccc3c(Br)cnc1c23` gave an MIC80 of 4 µg/mL (≈ 12.6 µM).
With `CC(=O)Nc1ccc(-c2cc3ccnc4c3c(n2)-c2sccc2C4=O)cc1` the MIC80 was over 64 µg/mL.
With `Cc1ccccc1-c1cc2ccnc3c2c(n1)-c1sccc1C3=O` the MIC80 was over 64 µg/mL.
Compound `O=C1c2cc(Br)sc2-c2nccc3ccnc1c23` has an MIC80 of 4 µg/mL (≈ 12.6 µM).

Tested on: Candida parapsilosis
Experiment: Antifungal activity against Candida parapsilosis after 24 hrs by serial dilution method
Assay type: functional
Conditions: Lodderomyces parapsilosis
For `O=C1c2ccsc2-c2nccc3ccnc1c23`, the MIC80 was 8 µg/mL (≈ 33.6 µM).
For `OC(Cn1cncn1)(Cn1cncn1)c1ccc(F)cc1F` [FLUCONAZOLE], the MIC80 was 1 µg/mL (≈ 3.27 µM).
For `Cn1cc2c(c1)-c1nccc3ccnc(c13)C2=O`, the MIC80 was over 64 µg/mL.
For `Cn1ccc2c1C(=O)c1nccc3ccnc-2c13`, the MIC80 was over 64 µg/mL.
Compound `O=C1c2ccccc2-c2nccc3ccnc1c23` [SAMPANGINE] has an MIC80 of 4 µg/mL (≈ 17.2 µM).
`O=C1c2ccsc2-c2nccc3c(Br)cnc1c23` showed an MIC80 of 16 µg/mL (≈ 50.4 µM).
In the case of `CC(=O)Nc1ccc(-c2cc3ccnc4c3c(n2)-c2sccc2C4=O)cc1`, the MIC80 is reported as over 64 µg/mL.
In the case of `Cc1ccccc1-c1cc2ccnc3c2c(n1)-c1sccc1C3=O`, the MIC80 is reported as over 64 µg/mL.
In the case of `O=C1c2cc(Br)sc2-c2nccc3ccnc1c23`, the MIC80 is reported as 64 µg/mL (≈ 202 µM).
